Source: ChEMBL document CHEMBL1130870, “C6 modification of the pyridinone core of thrombin inhibitor L-374,087 as a means of enhancing its oral absorption” (Bioorg Med Chem Lett, 1998)

What was measured:
Homo sapiens = species: Homo sapiens; assay: Compound was evaluated for its anticoagulant and antithrombotic activity by measuring the %protein binding in human plasma; type: functional, cell-free
[1] = Compound was evaluated for its anticoagulant and antithrombotic activity by measuring the clotting parameter in human plasma; type: functional
Rattus norvegicus [2] = species: Rattus norvegicus; assay: Compound was evaluated for its anticoagulant and antithrombotic activity by measuring the final plasma concentration in rat plasma; type: functional, organism-based
Serine protease 1 = Serine protease 1 (Homo sapiens, UniProt P07477); assay: Compound was evaluated to inhibit the trypsin enzyme
Chain of Serine protease 1 (P07477 whole entry): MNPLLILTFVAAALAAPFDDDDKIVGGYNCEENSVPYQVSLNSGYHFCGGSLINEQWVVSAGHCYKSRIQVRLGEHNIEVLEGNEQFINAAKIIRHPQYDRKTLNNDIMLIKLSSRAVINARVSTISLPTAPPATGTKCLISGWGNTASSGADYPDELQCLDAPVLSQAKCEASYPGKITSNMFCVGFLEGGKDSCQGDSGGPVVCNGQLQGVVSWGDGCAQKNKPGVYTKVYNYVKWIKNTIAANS

Prothrombin = Prothrombin (Homo sapiens, UniProt P00734); assay: Compound was evaluated to inhibit the thrombin enzyme
[3] = Partition coefficient (logP); type: physicochemical; details: octanol/water
[4] = Bioavailability as Vdss in dogs at 1 mg/kg intravenous dose; type: ADME, organism-based, Canis lupus familiaris; details: dog, in vivo, read-out: Vdss
[5] = Compound was evaluated for Clearance in dogs at a dose of 1 mpk intravenously; type: ADME, organism-based, Canis lupus familiaris; details: dog, in vivo, iv, 1 mg/kg; read-out: CI
[6] = Compound was evaluated for area under curve (total concentration) in dogs at a dose of 5 mpk perorally; type: ADME, organism-based, Canis lupus familiaris; details: dog, in vivo, po, 5 mg/kg
[7] = Compound was evaluated for area under curve (total concentration) in dogs at a dose of 1 mpk perorally; type: ADME, organism-based, Canis lupus familiaris; details: dog, in vivo, po, 1 mg/kg
Rattus norvegicus [8] = species: Rattus norvegicus; assay: Compound was evaluated for its anticoagulant and antithrombotic activity by measuring the clotting parameter in rat plasma; type: functional
[9] = Bioavailability as Cmax in dogs at 5 mg/kg oral dose; type: ADME, organism-based, Canis lupus familiaris; design: dose 5 mg/kg, route oral; details: dog, in vivo
Rattus norvegicus [10] = species: Rattus norvegicus; assay: Compound was evaluated for its anticoagulant and antithrombotic activity by measuring the %protein binding in rat plasma; type: functional, organism-based
[11] = (§1) Compound was evaluated for half-life period in dogs at a dose of 5 mpk perorally; type: ADME, organism-based, Canis lupus familiaris; details: dog, in vivo, po, 5 mg/kg
Canis familiaris = species: Canis familiaris; assay: as §1; type: ADME, organism-based, Canis lupus familiaris; details: dog, in vivo, po, 5 mg/kg

For `Cc1nc(N)ccc1CNC(=O)Cn1c(C2CC2)ccc(NS(=O)(=O)Cc2ccc(Cl)cc2)c1=O`, the PPB (Homo sapiens) was 94%, the “2x APTT” value [1] was 1.43 µM and the Plasma concentration (Rattus norvegicus [2]) was 0.347 µM. For the same compound, the Ki (Serine protease 1) was 1900 nM, the Ki (Prothrombin) was 4 nM and the logP [3] was 1.98.
For `Cc1nc(N)ccc1CNC(=O)Cn1c(C(F)(F)F)ccc(NS(=O)(=O)Cc2ccccc2)c1=O`, the Ki (Serine protease 1) was 2500 nM and the Ki (Prothrombin) was 12 nM.
`Cc1nc(N)ccc1CNC(=O)Cn1c(C(F)(F)F)ccc(NS(=O)(=O)Cc2ccc(Cl)cc2)c1=O` gave a Ki (Serine protease 1) of 3400 nM and a Ki (Prothrombin) of 2.6 nM.
With `CCCc1ccc(NS(=O)(=O)Cc2ccccc2)c(=O)n1CC(=O)NCc1ccc(N)nc1C` the Vd [4] was 0.54 L/kg, the clearance [5] was 5.82 mL/min/kg and the PPB (Homo sapiens) was 88%. For the same compound, the “2x APTT” value [1] was 0.32 µM, the Plasma concentration (Rattus norvegicus [2]) was 0.389 µM and the AUC [6] was 40.6 µM·h. For the same compound, the AUC [7] was 5.93 µM·h, the Ki (Serine protease 1) was 1400 nM and the Ki (Prothrombin) was 0.85 nM. The logP [3] was 1.52, the “2x APTT” value (Rattus norvegicus [8]) was 0.4 µM and the Cmax [9] was 9.46 µM. For the same compound, the PPB (Rattus norvegicus [10]) was 75% and the half-life [11] was 3.15 h.
For `Cc1nc(N)ccc1CNC(=O)Cn1c(C)ccc(NS(=O)(=O)Cc2ccccc2)c1=O` [L-374087], the Vd [4] was 0.46 L/kg, the clearance [5] was 3.8 mL/min/kg and the PPB (Homo sapiens) was 78%. For the same compound, the “2x APTT” value [1] was 0.22 µM, the Plasma concentration (Rattus norvegicus [2]) was 0.586 µM and the AUC [6] was 18.8 µM·h. For the same compound, the AUC [7] was 9.92 µM·h, the logP [3] was 0.69 and the “2x APTT” value (Rattus norvegicus [8]) was 0.25 µM. For the same compound, the Cmax [9] was 5.31 µM, the PPB (Rattus norvegicus [10]) was 47% and the T1/2 (Canis familiaris) was 2.52 h.
With `Cc1nc(N)ccc1CNC(=O)Cn1c(C2CC2)ccc(NS(=O)(=O)Cc2ccccc2)c1=O` the Ki (Serine protease 1) was 1700 nM and the Ki (Prothrombin) was 16 nM.
Work on `Cc1nc(N)ccc1CNC(=O)Cn1c(C)ccc(NS(=O)(=O)Cc2ccc(Cl)cc2)c1=O` yielded a Ki (Serine protease 1) of 2600 nM and a Ki (Prothrombin) of 0.12 nM.
